Literature values, collected in publication PMC9034292 (The Journal of Biological Chemistry, 2022).
pKd: −log10 of the molar value.

Experiments:
[1] = test system: HIV-1 RT–associated RNase H
[2] = one divalent cation-coordinating ion

Inhibition of HIV RNase H [1]	Manner of inhibition of HIV-1 RT–associated RNase H [1]	Inhibition of HBV RNase H (HBV RNase H)	pKd [2]	logK (stability constant) [2]	Compound
inhibits	reversible noncompetitive	inhibits			CC(C)c1ccc(O)c(=O)c(O)c1 [β-thujaplicinol]
			3.82	3.82	dihydroxytropylium ion
